Results on one molecule are retold here after US20100197789A1, “ANTI-OBESITY AGENT AND USE THEREOF” (National University Corporation Nagoya University, priority 2006, published 2010).

Type in all cases: in vivo, mouse
Assay [1] relates to lean mice. Briefly: Food intake amount and body weight, 5 week-continuous oral administration, non-obese lean mice. The note with it: lean mice (normal diet); oral 5 weeks; (±)-baclofen 5 mg/kg/day, SKF97541 0.3 mg/kg/day, 3-APPA 5 mg/kg/day. How it is done:
5 week-old male C57BL/6N mice (body weight 17 to 20 g, CLEA Japan, Inc.) were purchased and individually fed in tip cages. To the mice, normal pellet diet (CE-2) was administered under free water intake and free food intake. A body weight and a food intake amount over 24 hours were measured every day from the start of feeding. On day 3 after the start of feeding, blood was taken from an orbit after 6 hour-fasting and a blood glucose level and a blood insulin concentration were measured. The mice were divided into a control group and a baclofen treated group (10 mice per each group) so that a body weight, a 24 hour-food intake amount, a blood glucose level, and a blood insulin concentration were equal, and diet induced-obesity (DIO) was started to be induced by administration of high fat diet (High Fat Diet 32, energy fat ratio 60%, CLEA Japan, Inc.) (DIO mice). At the same time as the start of administering the high fat diet, (±)-baclofen was dissolved in drinking water and 5 week-continuous oral administration was started in a dosage of 5 mg per 1 kg of a body weight in 1 day (5 mg/kg/day). A food intake amount and a body weight were measured over time during the 5 week-administration period. (±)-baclofen (5 mg/kg/day) was orally administered also to C57BL/6N mice (lean mice) that are non-obese mice to which normal diet was administered in the same manner as described above, and a food intake amount and a body weight were measured over time.
5 week-old male C57BL/6N mice (body weight 17 to 20 g, CLEA Japan, Inc.) were purchased and individually fed in tip cages. Normal pellet diet (CE-2) was administered to the mice under free water intake and free food intake. A body weight and a food intake amount over 24 hours were measured every day from the start of feeding. On day 3 after the start of feeding, blood was taken from an orbit after 6 hour-fasting and a blood glucose level and a blood insulin concentration were measured. The mice were divided into a control group, an SKF97541 treated group and a 3-APPA treated group (10 mice per each group) so that a body weight, a 24 hour-food intake amount, a blood glucose level, and a blood insulin concentration were equal, and diet induced-obesity (DIO) was started to be induced by administration of high fat diet (High Fat Diet 32, energy fat ratio 60%, CLEA Japan, Inc.) (DIO mice). At the same time as the start of administering the high fat diet, SKF97541 (0.3 mg/kg/day) or 3-APPA (5 mg/kg/day) was dissolved in drinking water and 5 week-continuous oral administration was started. A food intake amount and a body weight were measured over time during the 5 week-administration period. SKF97541 (0.3 mg/kg/day) or 3-APPA (5 mg/kg/day) was orally administered also to C57BL/6N mice (lean mice) to which normal diet was administered in the same manner as described above, and a food intake amount and a body weight were measured over time.

Assay [2] concerns DIO mice. Briefly: Fasting blood glucose, HbA1c, blood insulin, plasma leptin and adiponectin after 5-week administration, DIO mice. How it is done: The blood glucose level was measured by a glucose analyzer Antisense (HORIBA, Ltd.) promptly after taking blood from an orbit. HbA1c was measured by a glycohemoglobin analyzer HLC-723 GHbV (manufactured by TOSOH Corporation) after preserving blood at −80° C.
After taking blood from an orbit by using a hematocrit tube coated with heparin, blood was centrifuged at 3500 rpm at 4° C. for 15 minutes, and plasma was preserved at −80° C. The plasma concentrations of insulin, leptin and adiponectin were measured by the ELISA method (levis insulin kit (mouse): Shibayagi Co., Ltd., Morinaga Leptin assay kit: Morinaga Institute of Biological Science, Inc., Mouse/rat adiponectin ELISA kit: OTSUKA Pharmaceutical Co., Ltd.).
(±)-baclofen (5 mg/kg/day), SKF97541 (0.3 mg/kg/day) or 3-APPA (5 mg/kg/day) was orally administered to DIO mice for 5 weeks according to the above described method, and then blood was taken from an orbit after 6 hour-fasting and a blood glucose level, an HbA1c value and a blood insulin concentration were measured.
(±)-baclofen (5 mg/kg/day) was orally administered to DIO mice for 5 weeks according to the above described method, and then, blood was taken from an orbit after 6 hour-fasting, and a plasma leptin concentration and a plasma adiponectin concentration were measured. The DIO mice were sacrificed by cervical luxation after the end of the 5-week administration, and then epididymal white adipose tissues and subcutaneous white adipose tissues were surgically removed, and after measuring the weights, they were fixed in 4% formaldehyde. The epididymal white adipose tissues were cut out to prepare a section with a thickness of 8 μm and subjected to Hematoxylin-Eosin stain (H-E stain) and a form (size) of a fat cell was examined by using an image analysis system, Neurolucida (MicroBrightField Japan, Inc.).

Assay [3] has as its system POMC mRNA. Briefly: In situ hybridization, POMC mRNA in hypothalamic arcuate nucleus, DIO mice. The conditions noted are these: (±)-baclofen oral 5 weeks. How it is done:
A hypothalamic section with a thickness of 12 μm was prepared from the brain preserved at −80° C. by using a cryostat and stuck to a MAS coat slide and then in situ hybridization was performed. For a label of NPY mRNA and POMC mRNA probes, ^35S was used. The hypothalamic section was pretreated by using triethanolamine, ethanol and the like, and then 12 hour-hybridization was performed at 55° C. After the hybridization, the hypothalamic section was treated by washing with SSC, RNase, etc. After development to a film, the mRNA expression strength was assayed by using the NIH image.
(±)-baclofen was orally administered to DIO mice for 5 weeks according to the above method, and then the DIO mice were sacrificed. A brain was surgically removed, and changes in expression amounts of NPY mRNA and POMC mRNA in the hypothalamic arcuate nucleus were examined by using an in situ hybridization method.

Where [4] appears, read: 6 hour-fasting after 5 weeks oral, (±)-baclofen 5, SKF97541 0.3, 3-APPA 5 mg/kg/day, vs control.
The mark [5] stands for this setting: (±)-baclofen 5 mg/kg/day oral 5 weeks, 6 hour-fasting.

With `NCC(CC(=O)O)c1ccc(Cl)cc1` (racemic) [(±)-baclofen, (RS)-4-amino-3-(4-chlorophenyl)butanoic acid], in assay [1], the body weight entry is “did not give significant effects” and the food intake amount result is recorded as “did not give significant effects”. In assay [2] (setting [4]), the “fasting blood glucose level” value was “significant decreases” and the “fasting blood insulin concentration” value is “significant decreases”. In assay [2] (setting [5]), the plasma adiponectin concentration result is “significantly increased” and the plasma leptin concentration result was “significantly decreased”. Further, in assay [2] (after 5 weeks oral, (±)-baclofen 5, SKF97541 0.3, 3-APPA 5 mg/kg/day, vs control), the HbA1c value result is “significant decreases”. In addition, in assay [3], the “expression of POMC mRNA in the hypothalamic arcuate nucleus” value is listed as “significantly increased”.
